Laboratory results as given in patent publication US11198741B2, “Medicines for topic use based on sulfated hyaluronic acid as activating or inhibiting agent of the cytokine activity” (Fidia Farmaceutici S.p.A., priority 2009, dated 2021).
Where two headings read alike, the source gives them in different places.

Key:
[1] = system: Vesicular stomatitis virus: VSV; format: cell-based
[2] = system: IL-7; assay: Protein synthesis of IL-7 in human PBMC (SearchLight array); conditions: not stimulated or stimulated with LPS or PHA (10 μg/ml), 24 hours, FIG. 7: 1 mg/ml, vs HA
Description: (§2) For these experimentations, mononucleate cells of human peripheral blood (PBMC) were adopted, deriving from various donors for evaluating the effect of HAS on the production of the cytokines listed above, using:
(§3) The separation of the PBMC (Bøyum A., Scand J Clin Lab Invest 21 Suppl, 1968, 97:77-89) was effected using the product Ficoll-Paque PLUS (GE Healthcare) and following the protocol indicated by the supplier. At day zero 100,000 cells were plated per well (using plates with 96 wells) in 200 μl of medium RPMI 1640, to which 10% of fetal bovine serum, HEPES 10 mM, Glutamine 2 mM, 1% Penicillin-Streptomycin 100 U/ml, had been added. […] The cells were treated separately with the three compounds at a concentration of 0.1 mg/ml or 1 mg/ml. After 24 hours of incubation at 37° C. (5% CO2), 100 μl of supernatant were taken from each well in order to analyze the production of IL-2, IL-7, IL-10 and IL-12.
(§4) The quantification of the inflammation mediators was effected by means of the SearchLight® technology, using a Custom Human 9-flex Array plate following the protocol indicated by the supplier in the technical card.

[3] = system: Herpes Simplex Virus-2 (HSV-2: G, 196 and Lyons strain); assay: Inhibition of viral cytopathogenicity in E6SM fibroblast cells, HSV-2; format: cell-based; conditions: 2nd day of incubation, numbers only in FIG. 10
[4] = system: IL-12; assay: Protein synthesis of IL-12 in human PBMC (SearchLight array); conditions: not stimulated or stimulated with LPS or PHA (10 μg/ml), 24 hours, FIG. 8: 1 mg/ml, vs HA
Description: as §2, §3, §4

[5] = system: IL-10; assay: Gene expression of IL-10 in human synoviocytes (PCR Real Time); format: cell-based; conditions: 3 days of treatment, FIG. 1: HAS1 0.5 mg/ml, HAS3 0.1 mg/ml, vs control treated with non-sulfated HA 200 KD
Description: (§1) Human synoviocytes previously expanded in vitro and maintained in a culture at 37° C. with a medium of DMEM containing 10% of FCS, were seeded at a concentration of 20,000 cells per well (synoviocytes are cells capable of producing various types of cytokines, and are therefore normally used for this type of experimental test). […] After 3 days of treatment, the PCR Real Time was effected to evaluate the gene expression of IL-10 and IL-12: the cell RNA was extracted using the “Trizol” method, following the indications of the supplier (TRIZOL reagent, LIFE Technologies, GIBCO BRL). In short, the cells were lysed by the addition of 1.0 ml of Trizol and the total RNA was quantified by measuring its absorbance at 260 nm. The appropriate primers were selected for each gene to be amplified, using the software Primer3 (Roche Molecular Diagnostics, Pleasanton, Calif., USA). The gene expression was evaluated by means of PCR Real Time effected with a Rotor-gene TM5500 (Corbett research, Sydney, Australia). The PCR reactions were effected using primers at […] and SYBR Green (Invitroge, Carlsbad, Calif., USA) at 40 cycles of 15 s at 95° C., and 1 min. at 60° C. The value of “Fluorescence thresholds (Ct)” was automatically determined by the software, evaluating an amplification coefficient for the genes studied between 92 and 110%. […]

[6] = system: IL-12; assay: Gene expression of IL-12 in human synoviocytes (PCR Real Time); format: cell-based; conditions: 3 days of treatment, FIG. 2: 0.5 mg/ml, vs control treated with non-sulfated HA 200 KD
Description: as §1

[7] = system: IL-2; assay: Protein synthesis of IL-2 in human PBMC (SearchLight array); conditions: not stimulated or stimulated with LPS or PHA (10 μg/ml), 24 hours, FIG. 6: HAS1 0.1 mg/ml, HAS3 1 mg/ml, vs HA
Description: as §2, §3, §4

[8] = system: Herpes Simplex Virus-1 (HSV-1: KOS, F and McIntyre strain); assay: Inhibition of viral cytopathogenicity in E6SM fibroblast cells, HSV-1; format: cell-based; conditions: 2nd day of incubation, numbers only in FIG. 10
[9] = system: TNF receptor; assay: Inhibition of the binding of 125I-TNF to its receptor in U937 cells (Radioligand Binding); parameters: species or system human; conditions: 125I-TNF 0.028 nM, sample 1 mg/ml, 4° C. 3 hours, medium and low MW
Text: These experiments were effected to evaluate the effectiveness of the samples tested (prepared according to Examples 1-4) on the capacity of inhibiting the binding of TNF to its receptor expressed by cells of the I.S. normally used in vitro for this type of experiment, carried out with iodinated cytokine components for an evaluation in Radioligand Binding assays. The experimental procedure was effected as described in Baglioni C. et al., J Biol Chem, 1985, 260:13395-13397. In short, the line of human histiocytes of the lymphoma U937 was used, with characteristics of monocytes sensitive to the cytotoxic activity of TNF, expressing its relative receptor. […] At the end of the incubation, the cells were centrifuged with dibutylphthalate/dinonylphthalate 2/1 and the pellet obtained was counted in a γ-counter.

[10] = system: Cytomegalovirus (CMV: AD-169 and Davis strain); assay: Inhibition of Cytomegalovirus plaque formation in HEL cells; format: cell-based; conditions: numbers only in FIG. 11
Description: The activity of the samples tested was determined by evaluating the inhibition of the cytopathogenicity determined by Cytomegalovirus (CMV: AD-169 and Davis strain) using the previous protocol. The antiviral activity was tested vs HEL cells (pulmonary embryonic cells) and was expressed as the concentration required for inhibiting the number of plaques formed by the above virus by 50%.

[11] = target: T1, fibrin clot (Homo sapiens, UniProt P02671+P02675+P02679); assay: In vitro fibrinolytic activity: dissolution of fibrin clot in coagulated plasma (absorbance at 405 nm); format: biochemical; conditions: 37° C.
T1 sequence (P02671 20-644 isoform P02671-2 limits assumed): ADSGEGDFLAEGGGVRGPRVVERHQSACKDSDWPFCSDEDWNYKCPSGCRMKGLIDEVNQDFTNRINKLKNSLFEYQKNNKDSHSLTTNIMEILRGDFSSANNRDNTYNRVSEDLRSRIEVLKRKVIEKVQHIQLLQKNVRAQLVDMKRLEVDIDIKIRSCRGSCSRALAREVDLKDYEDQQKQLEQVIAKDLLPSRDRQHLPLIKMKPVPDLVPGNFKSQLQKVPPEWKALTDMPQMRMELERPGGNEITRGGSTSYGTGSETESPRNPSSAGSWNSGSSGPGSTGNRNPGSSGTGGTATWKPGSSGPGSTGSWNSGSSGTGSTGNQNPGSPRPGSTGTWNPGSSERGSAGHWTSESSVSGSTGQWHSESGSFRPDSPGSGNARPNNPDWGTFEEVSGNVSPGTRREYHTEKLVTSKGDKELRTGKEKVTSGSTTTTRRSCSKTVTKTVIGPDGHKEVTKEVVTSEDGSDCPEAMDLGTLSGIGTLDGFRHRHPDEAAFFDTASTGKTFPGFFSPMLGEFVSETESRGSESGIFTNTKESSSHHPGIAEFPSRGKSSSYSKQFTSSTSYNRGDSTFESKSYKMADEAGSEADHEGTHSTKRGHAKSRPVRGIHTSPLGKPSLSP
T1 sequence (P02675 45-491 limits assumed): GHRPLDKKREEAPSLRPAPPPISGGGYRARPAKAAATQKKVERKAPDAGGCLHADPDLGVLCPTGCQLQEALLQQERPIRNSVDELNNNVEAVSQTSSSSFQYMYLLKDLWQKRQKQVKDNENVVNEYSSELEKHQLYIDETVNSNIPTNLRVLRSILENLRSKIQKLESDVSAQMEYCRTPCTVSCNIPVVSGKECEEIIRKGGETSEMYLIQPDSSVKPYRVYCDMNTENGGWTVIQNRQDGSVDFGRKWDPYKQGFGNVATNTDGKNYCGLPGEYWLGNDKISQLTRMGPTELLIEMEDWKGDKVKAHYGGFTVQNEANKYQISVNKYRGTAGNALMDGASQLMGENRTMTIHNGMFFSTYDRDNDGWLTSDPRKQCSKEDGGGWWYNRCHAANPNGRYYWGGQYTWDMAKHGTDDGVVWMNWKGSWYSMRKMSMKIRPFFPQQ
T1 sequence (P02679 27-437 isoform P02679-2 limits assumed): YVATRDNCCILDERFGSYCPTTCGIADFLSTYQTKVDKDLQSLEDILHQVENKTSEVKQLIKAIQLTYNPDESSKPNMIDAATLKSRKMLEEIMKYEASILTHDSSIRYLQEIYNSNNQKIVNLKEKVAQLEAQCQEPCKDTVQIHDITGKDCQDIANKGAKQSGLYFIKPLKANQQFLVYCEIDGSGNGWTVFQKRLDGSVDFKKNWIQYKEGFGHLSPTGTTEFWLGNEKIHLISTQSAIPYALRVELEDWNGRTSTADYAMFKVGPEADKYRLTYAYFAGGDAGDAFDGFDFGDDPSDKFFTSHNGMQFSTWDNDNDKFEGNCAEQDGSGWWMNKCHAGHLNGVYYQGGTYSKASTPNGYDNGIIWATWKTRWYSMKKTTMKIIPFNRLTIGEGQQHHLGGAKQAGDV
Description: The evaluation of the fibrinolytic properties of the products subjected to the test was compared with the acknowledged fibrinolytic activity of the plasmin. In particular, the dissolution rate of the fibrin network and formation of soluble products of the fibrin degradation (FDP), was evaluated.
In order to test the fibrinolytic effectiveness of the products subjected to testing, the blood samples were distributed in various test-tubes in which the clot formation was induced.
The formation of FDP was then evaluated after the addition of:
The freshly removed blood samples were distributed in various test-tubes containing sodium citrate in a ratio of 9:1. The test-tubes were immediately centrifuged at 3,000 rpm for 5 minutes. The plasma obtained was transferred to a new test-tube and immediately used for effecting the FDP evaluation.
Thrombin (300 mU/ml), preheated to 37° C. was added to the plasma samples, as activator of the fibrinogen in inducing the formation of the clot.
The following were added to the different cuvettes containing the fibrin clot:
a plasmin solution 0.5 mU, 5 mU, 50 mU, 500 mU and 1 U
solutions of HAS3 at concentrations of 25 mg/ml, 50 mg/ml, 100 mg/ml, 150 mg/ml and 200 mg/ml.
The absorbance variation at 405 nm for 60 sec. was evaluated spectrophotometrically for each cuvette. The reaction was left to proceed until the complete dissolution of the clot.
Coagulated plasma, plasmin solution and a solution of HAS3 200 KD and HAS3 20 KD were mixed in a ratio of 1:1 v/v and maintained at an operating temperature of 37° C.

## Nc1nc2c(ncn2COCCO)c(=O)[nH]1 [acyclovir, Acyclovir, reference compound]
[1]; E6SM cells, 2nd day of incubation, numbers only in FIG. 10
  antiviral activity (inhibition of the cytopathogenicity of the virus) vs VSV: inactive

## sulfated hyaluronic acid degree 1 [HAS1]
[2]
  synthesis of IL-7: significantly reducing
[1]
  antiviral activity (inhibition of the cytopathogenicity of the virus) vs VSV: very powerful antiviral activity
[3]
  antiviral activity (inhibition of the cytopathogenicity of the virus) vs HSV-2: powerful antiviral action
[4]
  synthesis of IL-12: significantly reducing
[5]
  gene expression of the cytokine IL-10: significant increase
[6]
  gene expression of IL-12 (synthesis of its mRNA): halving the synthesis of its mRNA
[7]
  synthesis of IL-2: significantly reducing
[8]
  antiviral activity (inhibition of the cytopathogenicity of the virus) vs HSV-1: powerful antiviral action
[9]
  inhibition of the binding of TNF to its receptor: 100%
[10]
  antiviral activity vs Cytomegalovirus (inhibition of the number of plaques): clear and significant positive result

B1: PLASMIN: enzyme of the group of hydrolases degrading fibrin; control treatment of acknowledged fibrinolytic activity (protein, UniProt P00747 20-580; P00747 581-810, looked up)
Plasmin heavy chain A: EPLDDYVNTQGASLFSVTKKQLGAGSIEECAAKCEEDEEFTCRAFQYHSKEQQCVIMAENRKSSIIIRMRDVVLFEKKVYLSECKTGNGKNYRGTMSKTKNGITCQKWSSTSPHRPRFSPATHPSEGLEENYCRNPDNDPQGPWCYTTDPEKRYDYCDILECEEECMHCSGENYDGKISKTMSGLECQAWDSQSPHAHGYIPSKFPNKNLKKNYCRNPDRELRPWCFTTDPNKRWELCDIPRCTTPPPSSGPTYQCLKGTGENYRGNVAVTVSGHTCQHWSAQTPHTHNRTPENFPCKNLDENYCRNPDGKRAPWCHTTNSQVRWEYCKIPSCDSSPVSTEQLAPTAPPELTPVVQDCYHGDGQSYRGTSSTTTTGKKCQSWSSMTPHRHQKTPENYPNAGLTMNYCRNPDADKGPWCFTTDPSVRWEYCNLKKCSGTEASVVAPPPVVLLPDVETPSEEDCMFGNGKGYRGKRATTVTGTPCQDWAAQEPHRHSIFTPETNPRAGLEKNYCRNPDGDVGGPWCYTTNPRKLYDYCDVPQCAAPSFDCGKPQVEPKKCPGR
Plasmin light chain B: VVGGCVAHPHSWPWQVSLRTRFGMHFCGGTLISPEWVLTAAHCLEKSPRPSSYKVILGAHQEVNLEPHVQEIEVSRLFLEPTRKDIALLKLSSPAVITDKVIPACLPSPNYVVADRTECFITGWGETQGTFGAGLLKEAQLPVIENKVCNRYEFLNGRVQSTELCAGHLAGGTDSCQGDSGGPLVCFEKDKYILQGVTSWGLGCARPNKPGVYVRVSRFVTWIEGVMRNN
modifications: Plasmin
[11]; plasmin 0.5 mU
  fibrinolytic activity (mAbs/min): 1 mAbs/min
[11]; plasmin 1 U
  fibrinolytic activity (mAbs/min): 190 mAbs/min
[11]; plasmin 5 mU
  fibrinolytic activity (mAbs/min): 68 mAbs/min
[11]; plasmin 50 mU
  fibrinolytic activity (mAbs/min): 126 mAbs/min
[11]; plasmin 500 mU
  fibrinolytic activity (mAbs/min): 178 mAbs/min
